Results as given in the supplement of paper PMC8253809.

What was measured:
iAstro [1] = astrocyte control; assay: maximal growth inhibition (yFin) relative to DMSO / staurosporine; higher = more efficacious
Method in brief: (§1)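 Compounds were delivered by pin tool as a 10-point threefold dilution series with a mean top concentration of 35 μM, in triplicate, to patient-derived pHGG/DIPG cell lines and astrocyte controls growing on 1% Geltrex-coated 384-well plates. Incubation lasted 7 days, or 3 days for iAstro, at 37 °C with 5% CO2. EC50 and maximal response (yFin) come from the three- or four-parameter log-logistic fit with the lowest AICc, applied to pooled, log2-transformed CellTiter-Glo luminescence normalised per plate to % activity between solvent (negative) and positive control wells.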

DIPGX7 [2] = H3.3 K27M diffuse intrinsic pontine glioma line; assay: as above
Method in brief: as §1

DIPGX37 [3] = H3.3 K27M diffuse intrinsic pontine glioma line; assay: as above
Method in brief: as §1

HGGX42 [4] = H3.3 G34R paediatric high-grade glioma line; assay: as above
Method in brief: as §1

SUDIPGVI [5] = diffuse intrinsic pontine glioma line; assay: as above
Method in brief: as §1

SUDIPGIV [6] = diffuse intrinsic pontine glioma line; assay: as above
Method in brief: as §1

SUDIPGXIII [7] = diffuse intrinsic pontine glioma line; assay: as above
Method in brief: as §1

SUDIPGXXI [8] = diffuse intrinsic pontine glioma line; assay: as above
Method in brief: as §1

DIPGX9 [9] = diffuse intrinsic pontine glioma line; assay: as above
Method in brief: as §1

HGGX2 [10] = paediatric high-grade glioma line; assay: as above
Method in brief: as §1

DIPGX29 [11] = H3.3 K27M diffuse intrinsic pontine glioma line; assay: as above
Method in brief: as §1

HGGX39 [12] = paediatric high-grade glioma line; assay: as above
Method in brief: as §1

SUDIPGXIX [13] = diffuse intrinsic pontine glioma line; assay: as above
Method in brief: as §1

iAstro [14] = assay: area under dose-response curve of % growth inhibition (log2 RLU vs DMSO / staurosporine), 1e-11 to 1e-4 M (% x log10 M); higher = more growth inhibition
Method in brief: (§2)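 Area under the curve was derived with the trapezoid rule from a fitted log-logistic curve, switching to a smoothing spline if the sigmoid fit failed. It rested on per-plate % activity between solvent and positive controls, calculated from log2-transformed CellTiter-Glo luminescence after 7 days of exposure (3 days for iAstro) at 37 °C, 5% CO2. Patient-derived pHGG/DIPG lines and astrocytes on 1% Geltrex-coated 384-well plates received a 10-point threefold dilution series, mean top concentration 35 μM, in triplicate.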

DIPGX7 [15] = assay: as above
Method in brief: as §2

DIPGX37 [16] = assay: as above
Method in brief: as §2

HGGX42 [17] = assay: as above
Method in brief: as §2

SUDIPGVI [18] = assay: as above
Method in brief: as §2

SUDIPGIV [19] = assay: as above
Method in brief: as §2

SUDIPGXVII = diffuse intrinsic pontine glioma line; assay: as above
Method in brief: as §2

SUDIPGXIII [20] = assay: as above
Method in brief: as §2

SUDIPGXXI [21] = assay: as above
Method in brief: as §2

HGGX6 = H3.3 G34R paediatric high-grade glioma line; assay: as above
Method in brief: as §2

DIPGX9 [22] = assay: as above
Method in brief: as §2

HABS = astrocyte control; assay: as above
Method in brief: as §2

HGGX2 [23] = assay: as above
Method in brief: as §2

DIPGX29 [24] = assay: as above
Method in brief: as §2

HGGX39 [25] = assay: as above
Method in brief: as §2

SUDIPGXIX [26] = assay: as above
Method in brief: as §2

| SMILES | maximal growth inhibition (iAstro [1]) [%] | maximal growth inhibition (DIPGX7 [2]) [%] | maximal growth inhibition (DIPGX37 [3]) [%] | maximal growth inhibition (HGGX42 [4]) [%] | maximal growth inhibition (SUDIPGVI [5]) [%] | maximal growth inhibition (SUDIPGIV [6]) [%] | maximal growth inhibition (SUDIPGXIII [7]) [%] | maximal growth inhibition (SUDIPGXXI [8]) [%] | maximal growth inhibition (DIPGX9 [9]) [%] | maximal growth inhibition (HGGX2 [10]) [%] | maximal growth inhibition (DIPGX29 [11]) [%] | maximal growth inhibition (HGGX39 [12]) [%] | maximal growth inhibition (SUDIPGXIX [13]) [%] | area under dose-response curve (iAstro [14]) | area under dose-response curve (DIPGX7 [15]) | area under dose-response curve (DIPGX37 [16]) | area under dose-response curve (HGGX42 [17]) | area under dose-response curve (SUDIPGVI [18]) | area under dose-response curve (SUDIPGIV [19]) | area under dose-response curve (SUDIPGXVII) | area under dose-response curve (SUDIPGXIII [20]) | area under dose-response curve (SUDIPGXXI [21]) | area under dose-response curve (HGGX6) | area under dose-response curve (DIPGX9 [22]) | area under dose-response curve (HABS) | area under dose-response curve (HGGX2 [23]) | area under dose-response curve (DIPGX29 [24]) | area under dose-response curve (HGGX39 [25]) | area under dose-response curve (SUDIPGXIX [26]) |
| --- | --- | --- | --- | --- | --- | --- | --- | --- | --- | --- | --- | --- | --- | --- | --- | --- | --- | --- | --- | --- | --- | --- | --- | --- | --- | --- | --- | --- | --- |
| CC(=O)c1cc([N+](=O)[O-])c(Sc2ccc(F)cc2F)s1 | 89.1 | 117 | 112 | 108 | 94.1 | 104 | 104 | 113 | 109 | 106 | 115 | 24.6 | 118 | 75.5 | 94.3 | 88.6 | 84 | 71.4 | 91.3 | 55.7 | 74.4 | 87.4 | 67.9 | 92.8 | 26.4 | 78.5 | 104 | 19.5 | 91.8 |
| CC(C)c1cc(C(=O)N2Cc3ccc(CN4CCN(C)CC4)cc3C2)c(O)cc1O | 31.4 | 78.3 | 92.6 | 65 | 51.6 | 56.5 | 51.9 | 105 | 94.9 | 54.4 | 105 | 105 | 77.2 | 88 | 125 | 264 | 131 | 88.8 | 152 | 164 | 111 | 256 | 92.3 | 281 | 215 | 145 | 189 | 218 | 230 |
| Cc1ccc2nc(NCCN)c3ncc(C)n3c2c1 | 26.6 | 92.7 | 86.6 | 83.9 | 70.6 | 91.6 | 73.5 | 117 | 98.5 | 45.5 | 88.2 | 57.7 | 85.2 | 35.1 | 96.7 | 93.7 | 83.7 | 67 | 113 | 78.2 | 89.5 | 143 | 75.1 | 99.8 | 54.2 | 54.2 | 94.6 | 52.5 | 79.1 |
| O=C(c1ccccc1)c1ccc2nc(NC(=O)c3csc(C4CCN(c5ncnc6ccsc56)CC4)n3)[nH]c2c1 | 64.8 | 89.8 | 38.4 | 48.7 | 45.9 | 27.7 | 50.1 | 111 | 44.1 | 51.9 | 62.1 | 29.6 | 112 | 88.4 | 135 | 89.1 | 72.8 | 67 | 51.4 | 68.3 | 114 | 147 | 55.8 | 62.6 | 42.1 | 83.7 | 97.4 | 55.4 | 118 |
| COCC1(CO)C(=O)C2CCN1CC2 (stereo unspecified) [APR-246] | 90.9 | 102 | 111 | 99.8 | 102 | 105 | 97.3 | 112 | 105 | 97.9 | 106 |  | 96.4 | 82.7 | 79.7 | 87.7 | 72 | 72.7 | 85.3 | 87.2 | 74.7 | 177 | 73.1 | 94.2 | 8.03 | 69.5 | 90.6 | 13 | 74.8 |
| CN1[C@@H]2CC[C@H]1C[C@@H](OC(=O)c1cc(Cl)cc(Cl)c1)C2 [BEMESETRON] | 36.1 | 90.5 | 102 | 86.2 |  | 77.1 |  | 104 | 43.8 | 49.4 | 89.8 | 81.4 | 77.2 | 35.7 | 112 | 137 | 119 | 15.4 | 93.7 | 39.9 | 8.98 | 166 | 73.6 | 58.7 | 14.8 | 64 | 101 | 85.8 | 65.3 |
